The structures appear in SMILES notation.

The test system of series [1] is T cells among human PBMCs activated with aCD3/aCD28. As to the kind of experiment: PBMC:MSC co-culture, T cell composition and CFSE proliferation after 72 hours. The protocol: (§1) Following activation, cells were analysed for effects on cellular composition after 24 hours and for effects on cellular composition and cell proliferation using CFSE after 72 hours. In addition, supernatants collected after 24 hours of activation were analysed for cytokine levels using Luminex.
(§2) Peripheral Blood Mononuclear Cells (PBMCs) were isolated from leucocyte concentrate from three different donors (acquired from Blodcentralen, Lunds Universitetssjukhus, Lund, Sweden) through gradient centrifugation at 400×g for 40 minutes using Ficoll. Red blood cells (RBCs) were lysed using BD Pharmlyse buffer 10× diluted in milliQ water for 3 minutes at room temperature (RT). Cells were washed and the isolated PBMCs were pooled. Cell concentration was determined using a Scepter cell counter (Millipore Merck, MA. USA). Cells were diluted to 1×10^7 cells/ml in PBS. Pooled PBMCs were split into 2 different tubes. Cells in tube 1 was stained with CFSE at 5 μM for 5 minutes (dark, RT). CFSEstained cells were washed with an equal volume of FBS to stop the reaction and washed again with PBS. Cells in tube two was left in PBS.
When plating controls, cells were spun down and diluted in M3 or M4 at 4*10^6 cells/ml, with a total amount of cells at 4*10^5 cells/well. 100 μl PBMCs were added per well. […] Medium was added to unstimulated control wells (700 μl/well). […]

The test system of series [2] is granulocytes and macrophages among human PBMCs activated with aCD3/aCD28. Nature of the series: PBMC:MSC co-culture, macrophage composition and CFSE proliferation after 72 hours. Type of series: cell-based. The procedure: as §1, §2
When plating controls, cells were spun down and diluted in M3 or M4 at 4*10^6 cells/ml, with a total amount of cells at 4*10^5 cells/well. 100 μl PBMCs were added per well. […] Medium was added to unstimulated control wells (700 μl/well). Cells were incubated for 24 or 72 hours at 37° ° C., 5% CO2. See also FIG. 23.
After 72 hours of incubation, CFSE stained cells were stained with CD4, CD8, CD80, CD206 and CD163 in staining buffer. Briefly, cells were transferred to V bottom plates, centrifuged at 360×g for 2 min. Cells were washed in PBS, centrifuged at 360×g for 2 min at 4° C. Supernatant was flicked off and surface markers were added. Cells were incubated at +4° C. for 20 minutes. After incubation, cells were washed 1× in PBS, centrifuged at 360×g for 2 min at 4° ° C. Cells were resuspended in PBS and acquired using the Attune Nxt flow cytometer. Compensation was performed using beads • AbC Total Compensation capture beads and negative beads for surface markers. For CFSE compensation, newly CFSE stained cells were used. Since compensation was done using both beads and cells, FSC and SSC were changed and adjusted to beads or cells. Lasers were not changed after compensation. 2.3.4 Cytokine Analysis after 24 Hours of Activation (Luminex)
Graphs were performed using Prism 8 for Mac OS X (GraphPad Software, San Diego, CA, USA). Results are presented as mean values±SEM, if not otherwise stated. Dot plots were acquired from analysis using FlowJo v10.6.1 for Mac (BD, New Jersey, USA).

Series [3] concerns human PBMCs activated with aCD3/aCD28. As to the kind of experiment: cytokine analysis in co-culture supernatant after 24 hours (Luminex). It counts as cell-based. As to conditions: media 3. The procedure:
100 μl PBMCs were added per well. […] See also FIG. 23. Supernatant (24 hours incubation) was analysed for cytokines using the 12-[…]-12 Luminex kit. All reagents, standard and samples were prepared at room temperature and according to manufacturer's instruction. Briefly, 50 μl of standard or sample was added to wells. Microparticles were added to samples and standard and samples were incubated for 2 hours at room temperature on a horizontal orbital shaker (800 rpm). Plate was washed 3× in washing buffer using a magnetic plate. Biotin-antibody was added and incubated dark for 1 hour at room temperature on a horizontal orbital shaker (800 rpm). Plate was washed 3× in washing buffer using a magnetic plate. Streptavidin-PE was added to each well and incubated dark at room temperature on a horizontal orbital shaker (800 rpm) for 30 minutes. Plate was washed 3× in washing buffer using a magnetic plate. Microparticles were resuspended in 100 μl washing buffer, incubated for 2 minutes on a horizontal orbital shaker (800 rpm). Samples were analysed on a Bio-Rad Luminex analyzer.

Series [4] relates to granulocytes and macrophages among human PBMCs activated with aCD3/aCD28. As to the kind of experiment: PBMC:MSC co-culture, macrophage activation status after 24 hours (FACS). Type of series: cell-based. Particulars: Prednisolone 125 nM. The protocol: as §1
(§3) Peripheral Blood Mononuclear Cells (PBMCs) were isolated from leucocyte concentrate from three different donors (acquired from Blodcentralen, Lunds Universitetssjukhus, Lund, Sweden) through gradient centrifugation at 400×g for 40 minutes using Ficoll. Red blood cells (RBCs) were lysed using BD Pharmlyse buffer 10× diluted in milliQ water for 3 minutes at room temperature (RT). Cells were washed and the isolated PBMCs were pooled. Cell concentration was determined using a Scepter cell counter (Millipore Merck, MA. USA). Cells were diluted to 1×10^7 cells/ml in PBS. Pooled PBMCs were split into 2 different tubes. Cells in tube 1 was stained with CFSE at 5 μM for 5 minutes (dark, RT). CFSEstained cells were washed with an equal volume of FBS to stop the reaction and washed again with PBS. Cells in tube two was left in PBS. […]
(§4) Following 24 hours of incubation, cells in FACS/Luminex plates were stained with antibodies detecting CD73, CD4, CD8, CD80, CD206, CD163 and PD-1 in staining buffer (PBS supplemented with 1% BSA). […] 150 μl was analysed from each sample.

Series [5] concerns T cells among human PBMCs activated with aCD3/aCD28. As to the kind of experiment: PBMC:MSC co-culture, T cell activation status after 24 hours (FACS). The procedure:
as §1, §3, §4

Regarding `C[C@]12C=CC(=O)C=C1CC[C@@H]1[C@@H]2[C@@H](O)C[C@@]2(C)[C@H]1CC[C@]2(O)C(=O)CO` [Prednisolone], the “effect on cytotoxic T cells (%)” value in series [1] is “no effect”. Also, the “effect on T helper cells (%)” value in series [1] (72 hours of incubation) was “no effect”. Moreover, in series [2], the M1 expression levels entry is reported as “no effect”, the “M1 proliferation (CFSE)” value is given as “No effect”, the M2 expression levels entry is reported as “no effect” and the “M2 proliferation (CFSE)” value is listed as “No effect”. Further, in series [3], the “HGF level in supernatant” value is listed as “inhibits”, the “IL-6 level in supernatant” value is reported as “inhibits”, the “IL-12/IL-23 p40 level in supernatant” value is “inhibits” and the “TNF-a level in supernatant” value is “inhibits”. For the same compound, in series [3], the “the other analysed cytokines, levels in supernatant” value is on record as “No inhibitory effect”. The macrophage cell composition result in series [4] was “did not have an effect”. The “composition of T helper cells (% CD4+ lymphocytes or MFI of CD4+ lymphocytes)” value in series [5] (24 hours of incubation, vs control) is on record as “higher levels”. For the same compound, in series [5] (24 hours, CsA 10 μg/ml, Prednisolone 125 nM), the “inhibition of T cell activation” value is “only slightly inhibits”.

The values above are taken from patent US20240164369A1, “MESENCHYMAL STEM CELLS FOR USE IN INCREASING EX-VIVO ORGAN LIFE” (Amniotics AB, priority 2021, published 2024).
